Assay results from article PMC8822125, “RW-BP100-4D, a Promising Antimicrobial Candidate With Broad-Spectrum Bactericidal Activity” (Frontiers in Microbiology, 2022).
Where a SMILES comes first, the peptide text is derived from it.

Legend:
[1] = tested on: Candida albicans ATCC10231; assay: MIC/MBC, broth microdilution (CLSI M38); assay type: cell-based
RAW264.7 cells = details: peptide 150 μg/mL, 24 h, WST-1, mean ± SD, three repeats
C. albicans ATCC10231 = details: 1 h, mean of three
Experimental: To evaluate the thermal and pH stability of RW-BP100-4D, 100 μL of the peptide (100 μg/mL, in PBS buffer) was incubated under different temperatures (40, 50, 60, 70, 80, 90, and 100°C, pH 7) or different pHs (2, 3, 4, 5, 6, 7, 8 and 9, 37°C) for 1 h ([Song et al., 2020]). After incubation, the pH of the peptide solutions was adjusted to 7.0 using NaOH or HCl. For protease and serum stability test, 100 μL of RW-BP100-4D (100 μg/mL) was incubated with proteinase K (1 mg/mL), trypsin (1 mg/mL), papain (1 mg/mL), or sterile calf serum at 37°C for 1 h, respectively ([Song et al., 2020]). After the treatments, the proteases and calf serum were inactivated by heating at 80°C for 30 min. The remnant activity of the treated RW-BP100-4D was evaluated by determining the MICs against E. coli ATCC25922, S. aureus ATCC29213, and C. albicans ATCC10231 using broth microdilution method. RW-BP100-4D without any treatment was used as the control and each test was conducted with three independent repeats. Moreover, degradation rate (%) was estimated as the percentage of degraded peptide calculated from the decrease of the high-performance liquid chromatography (HPLC) peak area of the native peptide. HPLC analysis was performed using the Agilent™ 1100 Series equipped with an Agilent analysis column (ZORBAX RX-C8, 2.1 mm × 150 mm, 5 μm) and an UV detector at 220 nm. Mobile phase was composed of A (H2O) and B (acetonitrile), which contained 0.065% trifluoroacetic (v/v) and 0.05% trifluoroacetic (v/v), respectively.

trypsin = assay: in vitro
Fusarium oxysporum LD21 = assay: MIC/MBC, broth microdilution (CLSI M38); assay type: cell-based
Escherichia coli O157:H7 = assay: MIC/MBC, broth microdilution; assay type: cell-based; details: mean of three repeated experiments
E. coli ATCC25922 = details: 1 h, mean of three
[2] = CLSI M38, mean of three repeated experiments
[3] = mean of three repeated experiments
[4] = 100 μg/mL peptide in PBS, pH 7, 40-80 ℃, then broth microdilution
[5] = 100 μg/mL peptide in PBS, pH 7, 90 ℃
[6] = 100 μg/mL peptide in PBS, pH 7, 100 ℃
[7] = 100 μg/mL peptide with papain 1 mg/mL, 37°C, protease inactivated 80°C 30 min
[8] = 100 μg/mL peptide with sterile calf serum, 37°C, serum inactivated 80°C 30 min
[9] = 100 μg/mL peptide with trypsin 1 mg/mL, 37°C, protease inactivated 80°C 30 min
[10] = 100 μg/mL peptide, pH 2-7, 37°C, then adjusted to pH 7.0
[11] = 100 μg/mL peptide, pH 8-9, 37°C, then adjusted to pH 7.0

## CC[C@H](C)[C@H](NC(=O)[C@H](CCCNC(=N)N)NC(=O)[C@H](CCCNC(=N)N)NC(=O)[C@@H](Cc1ccccc1)NC(=O)[C@H](CC(C)C)NC(=O)[C@H](CCCNC(=N)N)NC(=O)[C@@H](N)CCCNC(=N)N)C(=O)N[C@@H](CC(C)C)C(=O)N[C@@H](CCCNC(=N)N)C(=O)N[C@@H](Cc1c[nH]c2ccccc12)C(=O)N[C@@H](CC(C)C)C(N)=O [RW-BP100-4D] (HELM PEPTIDE1{R.R.L.[dF].R.R.I.L.R.W.L.[am]}$$$$V2.0)
[1]; [2]
  MIC of peptides: 12 µg/mL
[1]; [3]
  MBC of peptides: 25 µg/mL
RAW264.7 cells
  Cell survival rate, RAW264.7: 78.02 ± 7.66%
C. albicans ATCC10231; [4]
  MIC of RW-BP100-4D against C. albicans ATCC10231 after 40-80 ℃: 12 µg/mL
C. albicans ATCC10231; [5]
  MIC of RW-BP100-4D against C. albicans ATCC10231 after 90 ℃: 25 µg/mL
C. albicans ATCC10231; [6]
  MIC of RW-BP100-4D against C. albicans ATCC10231 after 100 ℃: 50 µg/mL
C. albicans ATCC10231; [7]
  MIC of RW-BP100-4D against C. albicans ATCC10231 after papain: >50 µg/mL
C. albicans ATCC10231; [8]
  MIC of RW-BP100-4D against C. albicans ATCC10231 after calf serum: >50 µg/mL
C. albicans ATCC10231; [9]
  MIC of RW-BP100-4D against C. albicans ATCC10231 after trypsin: >50 µg/mL
C. albicans ATCC10231; [10]
  MIC of RW-BP100-4D against C. albicans ATCC10231 after pH 2-7: 12 µg/mL
C. albicans ATCC10231; [11]
  MIC of RW-BP100-4D against C. albicans ATCC10231 after pH 8-9: 25 µg/mL
trypsin
  metabolised at 1 h, 100 μg/mL: > 90%
Fusarium oxysporum LD21; [2]
  MIC of peptides: 12 µg/mL
Fusarium oxysporum LD21; [3]
  MBC of peptides: 25 µg/mL
Escherichia coli O157:H7
  MBC of peptides: 6 µg/mL
  MIC of peptides: 3 µg/mL
E. coli ATCC25922; [4]
  MIC of RW-BP100-4D against E. coli ATCC25922 after 40-80 ℃: 6 µg/mL
E. coli ATCC25922; [5]
  MIC of RW-BP100-4D against E. coli ATCC25922 after 90 ℃: 12 µg/mL
E. coli ATCC25922; [6]
  MIC of RW-BP100-4D against E. coli ATCC25922 after 100 ℃: 25 µg/mL
E. coli ATCC25922; [7]
  MIC of RW-BP100-4D against E. coli ATCC25922 after papain: >50 µg/mL
E. coli ATCC25922; [8]
  MIC of RW-BP100-4D against E. coli ATCC25922 after calf serum: >50 µg/mL
E. coli ATCC25922; [9]
  MIC of RW-BP100-4D against E. coli ATCC25922 after trypsin: >50 µg/mL
E. coli ATCC25922; [10]
  MIC of RW-BP100-4D against E. coli ATCC25922 after pH 2-7: 6 µg/mL
E. coli ATCC25922; [11]
  MIC of RW-BP100-4D against E. coli ATCC25922 after pH 8-9: 12 µg/mL
